Measurements from patent US6582351B1, “Imidazopyridinone derivatives and their use as phosphodiesterase inhibitors” (Fujisawa Pharmaceutical Co., Ltd., priority 1999, dated 2003).

Legend:
human platelet PDE-V = target: T1, human platelet PDE-V (Homo sapiens, UniProt O76074); experiment: cGMP-Phosphodiesterase (PDE) assay; enzymatic inhibitory test against human platelet PDE-V; type: biochemical; settings: 0.1 μM [3H]-cGMP substrate, 30° C., 10 minutes
T1 construct: Human platelet cGMP-PDE was separated from other isozymes in human platelets; from tissue; host or cells: human platelets
Description: [II] Test Method: cGMP-Phosphodiesterase (PDE) Assay
Human platelet cGMP-PDE was separated from other isozymes in human platelets by a modification of the method of Thompson et. al. (see Cyclic Nucleotide Phosphodiesterase (PDE), in Methods of Enzymatic analysis, Vol 4, p127-234, 1984). Specific inhibitory activity of PDE-V was measured by following procedure. In enzyme inhibition assays, the test compounds were dissolved in DMSO and then diluted with assay buffer (50 mM Tris-HCl, 0.077 mg/ml dithiothreitol and 10 mg/ml snake venom, 1 mM EGTA, pH 8.0), at final concentrations ranging from 10^−10 to 10^−6 M. Assays were performed at 0.1 μM substrate ([^3H]-cGMP) concentration, at 30° C. for 10 minutes using enzyme dilutions which gave 10-20% hydrolysis of substrate. Each assay was initiated by addition of substrate and terminated by addition of anion exchange resin (Dowex® 1-X8, […]) followed by centrifugation for 10 minutes (3000 rpm, at 4° C.). Radioactivity of supernatant ([^3H]-GMP) was assayed by liquid scintillation counting.

| Compound | IC50 (human platelet PDE-V) [nM] | melting point [°C] |
| --- | --- | --- |
| COc1ccc(Cn2c(=O)n(C3CCC4OC(C)(C)OC4C3)c3ccc(C#N)cc32)cc1Cl (stereo not drawn) [Example 2(95), 3-(3-Chloro-4-methoxybenzyl)-5-cyano-1-(t-3,t-4-isopropylidenedioxy-r-1-cyclohexyl)-2,3-dihydro-1H-benzimidazol-2-one] | < 10 |  |
| COc1ccc(Cn2c(=O)n([C@H]3CC[C@H](O)CC3)c3ccc(C#N)cc32)cc1C#N [Example 2(81), 5-Cyano-3-(3-cyano-4-methoxybenzyl)-1-(trans-4-hydroxycyclohexyl)-2,3-dihydro-1H-benzimidazol-2-one] | < 10 | 191 to 193 |
| COc1ccc(Cn2c(=O)n([C@H](C)CO)c3ncc(C(F)(F)F)cc32)cc1Cl [Example 4(2), 1-(3-Chloro-4-methoxybenzyl)-3-((R)-2-hydroxy-1-methylethyl)-6-trifluoromethyl-2,3-dihydro-1H-imidazo[4,5-b]pyridin-2-one] | < 10 | 154.5 to 155 |
| COc1ccc(Cn2c(=O)n(C3CCN(C)CC3)c3ccc(C#N)cc32)cc1Cl [Example 28, 3-(3-chloro-4-methoxybenzyl)-5-cyano-1-(1-methylpiperidin-4-yl)-2,3-dihydro-1H-benzimidazole-2-one] | < 10 |  |
| COc1ccc(Cn2c(=O)n([C@H]3CCN(C(=O)OC(C)(C)C)C3)c3ccc(C#N)cc32)cc1Cl [Example 2(60), 1-[(S)-1-tert-Butoxycarbonylpyrrolidin-3-yl]-3-(3-chloro-4-methoxybenzyl)-5-cyano-2,3-dihydro-1H-benzimidazol-2-one] | < 10 |  |
| COc1ccc(Cn2c(=O)n([C@H]3CC[C@H](O)CC3)c3ncc(C#N)cc32)cc1Cl [Example 33, 1-(3-chloro-4-methoxybenzyl)-6-cyano-3-(trans-4-hydroxycyclohexyl)-2,3-dihydro-1H-imidazo[4,5-b]pyridin-2-one] | < 10 |  |
| COc1ccc(Cn2c(=O)n(-c3ccc4[nH]cnc4c3)c3ccc(C(F)(F)F)cc32)cc1Cl [Example 2(21), 1-(1H-Benzimidazol-5-yl)-3-(3-chloro-4-methoxybenzyl)-5-trifluoromethyl-2,3-dihydro-1H-benzimidazol-2-one] | < 10 | 158 to 160 |
| COc1ccc(Cn2c(=O)n([C@H]3CC[C@H](O)CC3)c3ccc([N+](=O)[O-])cc32)cc1[N+](=O)[O-] [Example 2(109), 1-(trans-4-Hydroxycyclohexyl)-3-(4-methoxy-3-nitrobenzyl)-5-nitro-1,3-dihydro-2H-benzimidazol-2-one] | < 10 |  |
| COc1ccc(Cn2c(=O)n(C3CCCC3)c3ncc(C(F)(F)F)cc32)cc1OC [Example 2(13), 3-Cyclopentyl-1-(3,4-dimethoxybenzyl)-6-trifluoromethyl-2,3-dihydro-1H-imidazo[4,5-b]pyridin-2-one] |  | 115 to 116 |
